Measurements: publication PMC3523387 (Planta medica, 2012)

Biological target: T1, protein tyrosine phosphatase 1B (PTP1B) (Homo sapiens, UniProt P18031)
T1 sequence (P18031 1-435): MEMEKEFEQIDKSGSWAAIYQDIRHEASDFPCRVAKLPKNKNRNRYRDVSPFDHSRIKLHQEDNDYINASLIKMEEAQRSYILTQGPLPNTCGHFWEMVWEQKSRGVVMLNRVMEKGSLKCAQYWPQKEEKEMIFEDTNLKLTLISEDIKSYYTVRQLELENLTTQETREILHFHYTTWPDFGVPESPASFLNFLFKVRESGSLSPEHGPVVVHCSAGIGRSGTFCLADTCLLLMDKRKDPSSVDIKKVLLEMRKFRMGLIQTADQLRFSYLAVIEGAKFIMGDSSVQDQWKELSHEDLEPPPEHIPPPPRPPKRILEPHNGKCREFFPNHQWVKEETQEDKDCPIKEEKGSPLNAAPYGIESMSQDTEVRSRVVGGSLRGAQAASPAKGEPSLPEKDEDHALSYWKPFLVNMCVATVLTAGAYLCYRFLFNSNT
Experiment: colorimetric pNPP hydrolysis assay with human recombinant PTP1B, dose-response
Format: biochemical

- IC50: 20.2 µM
Substance: ratanhiaphenol III [compound 9]
